In patent US9469633B2 (dated 2016) one finds melting point data, which are given here for 2 compounds.

The term melting point denotes the temperature, or range, at which the solid turns liquid. In turn, `O=C1C[C@](c2cc(Cl)cc(Cl)c2)(C(F)(F)F)C(=O)N1` came in with a melting point of 138 to 141 °C.

Regarding `O=C(/C=C(\c1cc(Cl)cc(Cl)c1)C(F)(F)F)c1ccco1`, the melting point was 72 to 76 °C.
